Results on one compound are retold here after US20070135462A1, “Combination therapy” (priority 2004, published 2007).

The subject of test [1] is HUVEC. The test can be described thus: HUVEC assay, basal endothelial cell proliferation. The class given is cell-based. The settings on record: Homo sapiens, read-out: IC50 for inhibition of basal endothelial cell proliferation.
For the next test, the system named is range of models. Put plainly: anti-tumour activity in a range of models. In kind it is in vivo. As to conditions: once-daily oral administration.
The test system of test [2] is HUVEC. The test can be described thus: HUVEC assay, VEGF-stimulated endothelial cell proliferation. The class given is cell-based. The settings on record: Homo sapiens, read-out: IC50 for inhibition of VEGF-stimulated endothelial cell proliferation.
The test system of another test is Calu-6 tumour xenograft. The test can be described thus: Calu-6 tumour xenograft in vivo solid tumour model. As to conditions: once-daily oral, 28 days.

In the case of `COc1cc2c(Oc3ccc4[nH]c(C)cc4c3F)ncnc2cc1OCCCN1CCCC1` [AZD2171, 4-(4-fluoro-2-methyl-1H-indol-5-yloxy)-6-methoxy-7-(3-(pyrrolidin-1-yl)propoxy)quinazoline], the IC50 with HUVEC [1] was more than 500 nM; in the test on HUVEC [2] it was 0.4 ± 0.2 nM. In the test with range of models, the anti-tumour activity entry is on record as “broad-spectrum anti-tumour activity”. The “inhibition of growth of Calu-6 tumour xenograft” value with Calu-6 tumour xenograft (1.5 mg/kg/day, P<0.01) worked out at 49%; with Calu-6 tumour xenograft (3 mg/kg/day, P<0.0001) it was 69%; with Calu-6 tumour xenograft (6 mg/kg/day, P<0.0001) it was 91%.
